Our source for the ED2 values is ChEMBL document CHEMBL1129226, “Synthesis of conformationally restricted progestational 13-ethylsteroids” (1997).

Each structure is given as a SMILES string.

This experiment relates to Oryctolagus cuniculus. Put plainly: In vivo activity using McPhail test after oral dose. It is filed as functional.
Regarding `C#C[C@]1(O)CCC2C3CCC4=CC(=O)CCC4C3[C@H]3C[C@H](C)[C@]21C3` (stereo partly drawn), the ED2 was approximately 0.032 mg/kg. The value for `C#C[C@]1(O)C=CC2C3CCC4=CC(=O)CCC4C3CCC21CC` (stereo partly drawn) was 0.008 mg/kg. As to `C#C[C@]1(O)CCC2C3CCC4=CC(=O)CCC4C3[C@H]3CC(=C)[C@]21C3` (stereo partly drawn), the ED2 is 1 mg/kg. The value for `C#C[C@]1(O)CCC2C3CCC4=CC(=O)CCC4C3CCC21CC` (stereo partly drawn) was 0.04 mg/kg; that for `C1=C2CC3(CCC2C2C(C1)C1CCC4(OCCO4)[C@@]14C[C@@H]2C[C@]41CO1)OCCO3` (stereo partly drawn) was more than 4 mg/kg; that for `C#C[C@]1(O)CCC2C3CCC4=CC(=O)CCC4C3[C@H]3C[C@@H](C)[C@]21C3` (stereo partly drawn) was 0.125 mg/kg.

Regarding `C#C[C@]1(O)CCC2C3CCC4=CC(=O)CCC4C3C(=C)CC21CC` (stereo partly drawn), the ED2 turned out to be 0.015 mg/kg. For `C#C[C@]1(O)CC[C@H]2[C@@H]3CCC4=CC(=O)CC[C@@H]4[C@H]3CC[C@@]21C` [NORETHINDRONE] the value was approximately 0.5 mg/kg.
